For data set [1], the system named is HIV-1 strains, for e.g., 92HT599. Briefly: Antiviral activity: p24 estimation in MT-2 cells infected with HIV-1. The data set is classed as cell-based. As to conditions: Human immunodeficiency virus 1, MT2, MT-2 cells infected with HIV-1, p24, ~96 hours. In short, it runs like this: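 MT-2 cells infected with HIV-1 (e.g. 92HT599), plated at 30,000 cells/well with compound (DMSO ≤1%) and incubated ~96 h. Supernatant p24 quantified by kit; percent inhibition relative to vehicle controls.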

The inhibition is the change of the read-out against control, counted positive when it falls. As usually defined, the viability is a per cent measure of how many cells are alive, often set against a control. High values mean less harm to the cells, low ones more harm to the cells.

Description for in vitro: On day 1 calculate the number of cells required for the assay and seed 3×10^4 cells in 200 μl per well. Weigh the compound and dissolve it in DMSO to get 10 mM stock which is further diluted to 3 mM and 1 mM. The drugs from these stocks were added to plate to get final concentration of 100 μM, 30 μM and 10 μM. […] Incubate for 4 days in 5% CO2 incubator at 37° C. On day 4, 100 μl of medium was removed from each well without disturbing the cells. Add 10 μl of MTT reagent and incubate for 4 hours at 5% CO2 incubator at 37° C. for formation of crystals. Add 200 μl of 0.1N acidic isopropanol to dissolve the crystals and read the plate at 590 nm.

For `COCCO[C@@H]1C[C@@H](c2nc(-c3cccc(F)c3)c[nH]2)N(C(=O)[C@]23CC[C@@H](C4(C)CC4)[C@@H]2[C@H]2CC[C@@H]4[C@@]5(C)CC[C@H](OC(=O)[C@H]6C[C@@H](C(=O)O)C6(C)C)C(C)(C)[C@@H]5CC[C@@]4(C)[C@]2(C)CC3)C1` [Compound 54, (1R,3S)-3-((((1R,3aS,5aR,5bR,7aR,9S,11aR,11bR,13aR,13bR)-3a-((2S,4R)-2-(4-(3-fluorophenyl)-1H-imidazol-2-yl)-4-(2-methoxyethoxy)pyrrolidine-1-carbonyl)-5a,5b,8,8,11a-pentamethyl-1-(1-methylcyclopropyl)icosahydro-1H-cyclopenta[a]chrysen-9-yl)oxy)carbonyl)-2,2-dimethylcyclobutane-1-carboxylic acid], in data set [1] (0.1 μM), the inhibition at 0.1 µM was 13%. Also, the inhibition at 1 µM in data set [1] (1 μM) was 93%. Moreover, in “in vitro”, the viability at 4 days, 10 μM amounted to 49%; the viability at 4 days, 30 μM amounted to 16%; the viability at 4 days, 100 μM worked out at 6%.

The values are drawn from patent publication US20170129916A1, “NOVEL BETULINIC PROLINE IMIDAZOLE DERIVATIVES AS HIV INHIBITORS” (HETERO RESEARCH FOUNDATION, priority 2014, published 2017).
